IC90 data for 18 compounds are collected here from patent US20230203043A1, “NOVEL IMIDAZOPYRAZINE DERIVATIVES” (Hoffmann-La Roche Inc., priority 2020, published 2023).

The test relates to Acinetobacter baumannii ATCC17961. Kind of test: Antimicrobial susceptibility testing: 90% growth inhibitory concentration (IC90) determination in Iso-Sensitest broth, OD600 growth. The format is cell-based. The essentials:
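Each strain, at about 5×10^(5) CFU/ml, was incubated with twofold dilutions of compound at 35±2° C for 16 h, and IC90 was calculated from kinetic optical density measured at 600 nm during logarithmic growth.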

[1] abbreviates: Acinetobacter baumannii, ATCC17961, 16 h, strain ATCC 17961, OD600 growth over 16 h, read-out: A. baumannii ATCC 17961 IC90.
Where [2] appears, read: Acinetobacter baumannii, ATCC17961, 16 h, read-out: A. baumannii ATCC 17961 IC90 (uM), strain ATCC 17961, OD600 growth over 16 h.
[3] abbreviates: strain ATCC 17961, OD600 growth over 16 h, read-out: A. baumannii ATCC 17961 IC90.

Structures are written as SMILES. Where a name gives a salt, the structure may show the parent alone. Read-outs that look alike come from different tables or passages of the source.

The term IC90 denotes the concentration needed for an effect of 90%. For the compound `CCc1cc(Nc2nccn3c(-c4c[nH]nc4C(F)(F)F)cnc23)ccc1C(=O)NCCCNC(=O)[C@@H](N)CNC(=N)N` [Example 13, N-[3-[[(2S)-2-amino-3-carbamimidamidopropanoyl]amino]propyl]-2-ethyl-4-[[3-[3-(trifluoromethyl)-1H-pyrazol-4-yl]imidazo[1,2-a]pyrazin-8-yl]amino]benzamide formate], the 90% effect concentration (IC90) under setting [1] was found to be 0.166 µM. With `Cc1cc(Cn2cc(-c3cnc4c(Nc5ccc(C(=O)N6CCNCC6)c(Cl)c5)nccn34)c(C(F)(F)F)n2)nn1C` [Example 185, [2-chloro-4-[[3-[1-[(1,5-dimethylpyrazol-3-yl)methyl]-3-(trifluoromethyl)pyrazol-4-yl]imidazo[1,2-a]pyrazin-8-yl]amino]phenyl]-piperazin-1-ylmethanone formate], under setting [2], the IC90 was found to be 0.65 µM. For `NC1CC(NC(=O)N2CCN(C(=O)c3ccc(Nc4nccn5c(-c6c[nH]nc6C(F)(F)F)cnc45)cc3Cl)CC2)C1` (stereo not drawn) [Example 265, N-(3-aminocyclobutyl)-4-[2-chloro-4-[[3-[3-(trifluoromethyl)-1H-pyrazol-4-yl]imidazo[1,2-a]pyrazin-8-yl]amino]benzoyl] piperazine-1-carboxamide formate], the IC90 under setting [3] is 0.231 µM.

Take `CCc1cc(Nc2nccn3c(-c4cn(CC(F)F)nc4C(F)(F)F)cnc23)ccc1C(=O)NCC1CC1N` (stereo not drawn) [Example 641, N-((2-aminocyclopropyl)methyl)-4-((3-(1-(2,2-difluoroethyl)-3-(trifluoromethyl)-1H-pyrazol-4-yl)imidazo[1,2-a]pyrazin-8-yl)amino)-2-ethylbenzamide formate]: the IC90 under setting [2] is 0.231 µM. As to `CCc1cc(Nc2nccn3c(-c4cn(CC#N)nc4Cl)cnc23)ccc1C(=O)NCCOCCN` [Example 833, N-(2-(2-aminoethoxy)ethyl)-4-((3-(3-chloro-1-(cyanomethyl)-1H-pyrazol-4-yl)imidazo[1,2-α]pyrazin-8-yl)amino)-2-ethylbenzamide], the IC90 under setting [1] stood at 0.46 µM. `Cc1cc(Nc2nccn3c(-c4cn(CC#N)nc4C(F)(F)F)cnc23)ccc1C(=O)NCC(=O)NCCN(C)C` [Example 752, 4-[[3-[1-(cyanomethyl)-3-(trifluoromethyl)pyrazol-4-yl]imidazo[1,2-a]pyrazin-8-yl]amino]-N-[2-[2-(dimethylamino)ethylamino]-2-oxo-ethyl]-2-methyl-benzamide formate]: under setting [2], the IC90 is 0.636 µM. As for `Cc1cc(Nc2nccn3c(-c4cn(CC#N)nc4C(F)(F)F)cnc23)ccc1C(=O)N1CCN(C(=O)N[C@@H]2CNC[C@H]2O)CC1` [Example 419, 4-[4-[[3-[1-(cyanomethyl)-3-(trifluoromethyl)pyrazol-4-yl]imidazo[1,2-a]pyrazin-8-yl]amino]-2-methylbenzoyl]-N-[(3R,4R)-4-hydroxypyrrolidin-3-yl]piperazine-1-carboxamide formate], the IC90 under setting [2] is 0.654 µM. On the same count and under the same terms, under `Cc1cc(Nc2nccn3c(-c4cn(CC#N)nc4C(F)(F)F)cnc23)ccc1C(=O)NCC(=O)NCCN` [Example 760, N-[2-(2-aminoethylamino)-2-oxo-ethyl]-4-[[3-[1-(cyanomethyl)-3-(trifluoromethyl)pyrazol-4-yl]imidazo[1,2-a]pyrazin-8-yl]amino]-2-methyl-benzamide formate] stands 0.718 µM.

As for `CCc1cc(Nc2nccn3c(-c4cn(CC#N)nc4C(F)F)cnc23)ccc1C(=O)NCCOCCN` [Example 18, N-[2-(2-aminoethoxy)ethyl]-4-[[3-[1-(cyanomethyl)-3-(difluoromethyl)pyrazol-4-yl]imidazo[1,2-a]pyrazin-8-yl]amino]-2-ethylbenzamide], under setting [1], the IC90 stood at 0.26 µM. In the case of `C#CCn1cc(-c2cnc3c(Nc4ccc(C(=O)N[C@@H](C)CN)c(CC)c4)nccn23)c(C(F)(F)F)n1` [Example 55, N-[(2S)-1-aminopropan-2-yl]-2-ethyl-4-[[3-[1-prop-2-ynyl-3-(trifluoromethyl)pyrazol-4-yl]imidazo[1,2-a]pyrazin-8-yl]amino]benzamide], the concentration for an effect of 90% (IC90) under setting [1] was 0.167 µM. As for `CCc1cc(Nc2nccn3c(-c4c[nH]nc4C(F)(F)F)cnc23)ccc1C(=O)NCCCNC(=O)CCCN` [Example 215, N-[3-(4-aminobutanoylamino)propyl]-2-ethyl-4-[[3-[3-(trifluoromethyl)-1H-pyrazol-4-yl]imidazo[1,2-a]pyrazin-8-yl]amino]benzamide formate], the IC90 under setting [2] amounted to 0.394 µM. In the case of `CCc1cc(Nc2nccn3c(-c4cn(CC(F)F)nc4C(F)(F)F)cnc23)ccc1C(=O)NCC(=O)NCC1CCN1` (stereo not drawn) [Example 530, N-[2-(azetidin-2-ylmethylamino)-2-oxo-ethyl]-4-[[3-[1-(2,2-difluoroethyl)-3-(trifluoromethyl)pyrazol-4-yl]imidazo[1,2-a]pyrazin-8-yl]amino]-2-ethyl-benzamide formate], under setting [2], the 90% effect concentration (IC90) stood at 0.327 µM. On to `CCc1cc(Nc2nccn3c(-c4cn(CCC(C)(C)O)nc4C(F)(F)F)cnc23)ccc1C(=O)NCCOCCN` [Example 311, N-[2-(2-aminoethoxy)ethyl]-2-ethyl-4-[[3-[1-(3-hydroxy-3-methylbutyl)-3-(trifluoromethyl)pyrazol-4-yl]imidazo[1,2-a]pyrazin-8-yl]amino]benzamide formate], for which, under setting [2], the IC90 came out at 0.769 µM. For the compound `NCCCC[C@H](N)C(=O)NCCNC(=O)c1ccc(Nc2nccn3c(-c4c[nH]nc4C(F)(F)F)cnc23)cc1Cl` [Example 224, 2-chloro-N-[2-[[(2S)-2,6-diaminohexanoyl]amino]ethyl]-4-[[3-[3-(trifluoromethyl)-1H-pyrazol-4-yl]imidazo[1,2-a]pyrazin-8-yl]amino]benzamide formate], the IC90 under setting [2] is 1.5 µM.

Turning to `N[C@@H]1CN[C@@H](C(=O)N2CCN(C(=O)c3ccc(Nc4nccn5c(-c6c[nH]nc6C(F)(F)F)cnc45)cc3Cl)CC2)C1` [Example 245, [4-[(2R,4S)-4-aminopyrrolidine-2-carbonyl]piperazin-1-yl]-[2-chloro-4-[[3-[3-(trifluoromethyl-1H-pyrazol-4-yl]imidazo[1,2-a]pyrazin-8-yl]amino]phenyl]methanone formate], under setting [3], the IC90 is 0.45 µM. For `C#CCn1cc(-c2cnc3c(Nc4ccc(C(=O)NCCCN)c(CC)c4)nccn23)c(C(F)(F)F)n1` [Example 47, N-(3-aminopropyl)-2-ethyl-4-[[3-[1-prop-2-ynyl-3-(trifluoromethyl)pyrazol-4-yl]imidazo[1,2-a]pyrazin-8-yl]amino] benzamide], under setting [3], the IC90 is 0.105 µM. For the compound `O=C(NCC1CNC1)N1CCN(C(=O)c2ccc(Nc3nccn4c(-c5c[nH]nc5C(F)(F)F)cnc34)cc2Cl)CC1` [Example 393, N-(azetidin-3-ylmethyl)-4-[2-chloro-4-[[3-[3-(trifluoromethyl)-1H-pyrazol-4-yl]imidazo[1,2-a]pyrazin-8-yl]amino]benzoyl]piperazine-1-carboxamide formate], the IC90 under setting [2] is 0.239 µM. Turning to `N#CCn1cc(-c2cnc3c(Nc4ccc(C(=O)NCC(=O)N5CCC(N)CC5)c(Cl)c4)nccn23)c(C(F)(F)F)n1` [Example 502, N-[2-(4-amino-1-piperidyl)-2-oxo-ethyl]-2-chloro-4-[[3-[1-(cyanomethyl)-3-(trifluoromethyl)pyrazol-4-yl]imidazo[1,2-a]pyrazin-8-yl]amino]benzamide formate], the IC90 under setting [1] was determined as 0.233 µM.
